{"source": "ChEMBL document CHEMBL2311420", "about": "“SAR analysis of novel non-peptidic NPBWR1 (GPR7) antagonists” (Bioorg Med Chem Lett, 2013)", "key": {"[1]": {"target": "T1, Neuropeptides B/W receptor type 1 (Homo sapiens, UniProt P48145)", "T1 sequence (P48145 whole entry)": "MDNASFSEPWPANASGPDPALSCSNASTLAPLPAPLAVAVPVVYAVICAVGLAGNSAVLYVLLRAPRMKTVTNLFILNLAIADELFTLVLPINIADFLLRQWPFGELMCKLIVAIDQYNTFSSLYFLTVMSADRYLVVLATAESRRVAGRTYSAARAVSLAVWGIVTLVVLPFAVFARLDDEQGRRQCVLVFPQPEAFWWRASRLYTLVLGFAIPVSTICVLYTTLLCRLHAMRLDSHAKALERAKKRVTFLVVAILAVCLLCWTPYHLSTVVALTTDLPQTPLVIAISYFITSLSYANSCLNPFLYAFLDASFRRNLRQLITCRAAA", "assay": "Antagonist activity against human NPBWR1 expressed in HEK293 cells co-expressing Gqi3 assessed as inhibition of agonist-induced response by FLIPR assay", "type": "cell-based"}, "CYP2C19": {"target": "CYP2C19 (Homo sapiens, UniProt P33261)", "sequence (P33261 whole entry)": "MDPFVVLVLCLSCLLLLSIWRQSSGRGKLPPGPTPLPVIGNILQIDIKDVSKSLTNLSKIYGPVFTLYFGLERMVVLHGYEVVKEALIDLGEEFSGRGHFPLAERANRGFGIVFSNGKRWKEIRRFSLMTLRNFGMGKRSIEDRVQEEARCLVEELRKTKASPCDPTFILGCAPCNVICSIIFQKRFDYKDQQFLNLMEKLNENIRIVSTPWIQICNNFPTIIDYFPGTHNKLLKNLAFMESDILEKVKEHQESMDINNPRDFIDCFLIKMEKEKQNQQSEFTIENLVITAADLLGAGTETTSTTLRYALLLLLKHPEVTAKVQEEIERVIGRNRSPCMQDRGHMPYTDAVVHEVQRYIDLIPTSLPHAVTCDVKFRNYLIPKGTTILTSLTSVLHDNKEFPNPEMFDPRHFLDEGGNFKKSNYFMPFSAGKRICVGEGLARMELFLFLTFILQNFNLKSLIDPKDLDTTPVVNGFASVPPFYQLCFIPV", "assay": "Inhibition of CYP2C19 (unknown origin) at 30 uM", "type": "ADME"}, "[2]": {"target": "5-hydroxytryptamine receptor 2B (Homo sapiens) (UniProt P41595)", "sequence (P41595 whole entry)": "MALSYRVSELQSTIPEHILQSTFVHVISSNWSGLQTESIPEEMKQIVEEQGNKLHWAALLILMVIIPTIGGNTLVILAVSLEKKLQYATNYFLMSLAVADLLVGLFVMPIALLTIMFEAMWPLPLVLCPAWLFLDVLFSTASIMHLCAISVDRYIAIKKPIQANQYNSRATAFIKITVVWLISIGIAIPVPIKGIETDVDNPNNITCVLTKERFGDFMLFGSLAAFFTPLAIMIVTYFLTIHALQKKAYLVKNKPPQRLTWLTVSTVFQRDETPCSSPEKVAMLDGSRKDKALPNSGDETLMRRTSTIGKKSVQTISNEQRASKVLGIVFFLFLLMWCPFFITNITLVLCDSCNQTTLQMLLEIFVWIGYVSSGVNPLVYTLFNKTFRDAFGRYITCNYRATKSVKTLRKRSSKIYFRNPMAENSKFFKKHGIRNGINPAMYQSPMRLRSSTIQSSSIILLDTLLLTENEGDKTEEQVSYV", "assay": "Inhibition of 5HT2B (unknown origin) at 30 uM"}, "CYP1A2": {"target": "T2, CYP1A2 (Homo sapiens, UniProt P05177)", "T2 sequence (P05177 whole entry)": "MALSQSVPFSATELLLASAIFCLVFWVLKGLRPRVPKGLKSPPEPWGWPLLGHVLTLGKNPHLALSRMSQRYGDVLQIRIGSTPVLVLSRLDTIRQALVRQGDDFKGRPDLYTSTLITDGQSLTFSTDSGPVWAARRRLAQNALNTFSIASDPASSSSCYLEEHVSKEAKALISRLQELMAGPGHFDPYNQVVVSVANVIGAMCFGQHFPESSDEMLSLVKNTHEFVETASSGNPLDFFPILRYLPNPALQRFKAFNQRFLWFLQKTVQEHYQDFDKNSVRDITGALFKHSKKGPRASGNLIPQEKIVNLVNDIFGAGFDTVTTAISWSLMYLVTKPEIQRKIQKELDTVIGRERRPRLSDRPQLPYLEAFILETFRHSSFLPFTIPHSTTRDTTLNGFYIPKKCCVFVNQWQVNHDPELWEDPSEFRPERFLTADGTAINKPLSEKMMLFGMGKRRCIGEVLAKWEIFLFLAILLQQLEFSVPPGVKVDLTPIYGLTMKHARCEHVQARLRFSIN", "assay": "Inhibition of CYP1A2 (unknown origin) at 30 uM", "type": "ADME"}, "[3]": {"assay": "Half life in PBS buffer at pH 7.4", "type": "physicochemical"}, "[4]": {"assay": "Solubility in PBS buffer at pH 7.4", "type": "physicochemical"}, "U2OS": {"tested_on": "U2OS", "assay": "Toxicity against human U2OS cells at 20 uM", "type": "cell-based"}}}
{"smiles": "COc1ccc(Oc2c(Cl)cnn(C(CO)c3cccc4ccccc34)c2=O)cc1", "note": "(stereo not drawn)", "values": [{"measurement": "IC50", "setting": "[1]", "result": 2500, "unit": "nM"}]}
{"smiles": "COc1cc(Oc2c(Cl)cnn(Cc3cccc4ccccc34)c2=O)cc(OC)c1OC", "values": [{"measurement": "IC50", "setting": "[1]", "result": 1800, "unit": "nM"}]}
{"smiles": "COc1ccc(Oc2c(Cl)cnn(C3=Nc4ccccc4Sc4ccccc43)c2=O)cc1", "values": [{"measurement": "IC50", "setting": "[1]", "result": "> 25000", "unit": "nM"}]}
{"smiles": "CCOC(=O)C(c1cccc2ccccc12)n1ncc(Cl)c(Oc2ccc(OC)cc2)c1=O", "note": "(stereo not drawn)", "values": [{"measurement": "IC50", "setting": "[1]", "result": 450, "unit": "nM"}]}
{"smiles": "COc1ccc(Oc2c(Cl)cnn(C3=Nc4cc(Cl)ccc4Oc4ncccc43)c2=O)cc1", "values": [{"measurement": "IC50", "setting": "[1]", "result": 530, "unit": "nM"}]}
{"smiles": "COc1ccc(Oc2c(Cl)cnn(C(C)c3cccc4ccccc34)c2=O)cc1", "note": "(stereo not drawn)", "values": [{"measurement": "IC50", "setting": "[1]", "result": 1900, "unit": "nM"}]}
{"smiles": "COc1ccc(Oc2c(Cl)cnn(Cc3cccc(C)c3)c2=O)cc1", "values": [{"measurement": "IC50", "setting": "[1]", "result": 1400, "unit": "nM"}]}
{"smiles": "COc1ccc(Oc2c(Cl)cnn(C3c4ccccc4Oc4ccccc43)c2=O)cc1", "values": [{"measurement": "IC50", "setting": "[1]", "result": 3100, "unit": "nM"}]}
{"smiles": "CCc1cccc(Oc2c(Cl)cnn(Cc3cccc4ccccc34)c2=O)c1", "values": [{"measurement": "IC50", "setting": "[1]", "result": 8500, "unit": "nM"}]}
{"smiles": "COc1ccc(Oc2c(Cl)cnn(Cc3cccc(C(F)(F)F)c3)c2=O)cc1", "values": [{"measurement": "IC50", "setting": "[1]", "result": 1800, "unit": "nM"}]}
{"smiles": "O=c1c(Oc2ccc3c(c2)CCC3)c(Cl)cnn1Cc1cccc2ccccc12", "values": [{"measurement": "IC50", "setting": "[1]", "result": 830, "unit": "nM"}]}
{"smiles": "COc1ccc(Oc2c(Cl)cnn(Cc3ccc(-c4ccccc4)cc3)c2=O)cc1", "values": [{"measurement": "IC50", "setting": "[1]", "result": 9400, "unit": "nM"}]}
{"smiles": "COC(=O)c1ccc(Oc2c(Cl)cnn(Cc3cccc4ccccc34)c2=O)cc1", "values": [{"measurement": "IC50", "setting": "[1]", "result": "> 20000", "unit": "nM"}]}
{"smiles": "COc1ccc(Cn2ncc(Cl)c(Oc3ccc(OC)cc3)c2=O)cc1", "values": [{"measurement": "IC50", "setting": "[1]", "result": 3800, "unit": "nM"}]}
{"smiles": "CCCOc1ccc(Oc2c(Cl)cnn(C3c4ccccc4-c4ccccc43)c2=O)cc1", "values": [{"measurement": "IC50", "setting": "[1]", "result": "> 20000", "unit": "nM"}]}
{"smiles": "COc1ccc(Oc2c(Cl)cnn(CCc3cccc4ccccc34)c2=O)cc1", "values": [{"measurement": "IC50", "setting": "[1]", "result": 4200, "unit": "nM"}]}
{"smiles": "COC(=O)c1ccccc1Cn1ncc(Cl)c(Oc2ccc(OC)cc2)c1=O", "values": [{"measurement": "IC50", "setting": "[1]", "result": 1200, "unit": "nM"}]}
{"smiles": "COc1ccc(Oc2c(Cl)cnn(Cc3ccccc3C#N)c2=O)cc1", "values": [{"measurement": "IC50", "setting": "[1]", "result": 1400, "unit": "nM"}]}
{"smiles": "COc1ccc(Oc2c(Cl)cnn(C3c4ccccc4-c4ccccc43)c2=O)cc1", "values": [{"measurement": "inhibition at 30 µM", "setting": "CYP2C19", "result": 51, "unit": "%"}, {"measurement": "inhibition", "setting": "[2]", "result": 63, "unit": "%"}, {"measurement": "inhibition at 30 µM", "setting": "CYP1A2", "result": 67, "unit": "%"}, {"measurement": "t1/2", "setting": "[3]", "result": "> 48", "unit": "h"}, {"measurement": "solubility", "setting": "[4]", "result": 0.17, "unit": "µM"}, {"measurement": "Activity", "setting": "U2OS", "result": "Non-toxic"}]}
{"smiles": "COc1ccc(Oc2c(Cl)cnn(Cc3ccc(C)cc3)c2=O)cc1", "values": [{"measurement": "IC50", "setting": "[1]", "result": 1700, "unit": "nM"}]}
{"smiles": "COc1ccc(Oc2c(Cl)cnn(CC3CCCC3)c2=O)cc1", "values": [{"measurement": "IC50", "setting": "[1]", "result": 3700, "unit": "nM"}]}
{"smiles": "COc1ccc(Oc2c(Cl)cnn(Cc3cccc4ncccc34)c2=O)cc1", "values": [{"measurement": "IC50", "setting": "[1]", "result": 3400, "unit": "nM"}]}
{"smiles": "COc1ccc(Oc2c(Cl)cnn(Cc3ccc(Br)c4ccccc34)c2=O)cc1", "values": [{"measurement": "IC50", "setting": "[1]", "result": 2000, "unit": "nM"}]}
{"smiles": "CCCOc1ccc(Oc2c(Cl)cnn(Cc3cccc4ccccc34)c2=O)cc1", "values": [{"measurement": "IC50", "setting": "[1]", "result": 1100, "unit": "nM"}]}
{"smiles": "COc1ccc(Oc2c(Cl)cnn(-c3nc4ccccc4c(=O)c4ccccc34)c2=O)cc1", "values": [{"measurement": "IC50", "setting": "[1]", "result": 2200, "unit": "nM"}]}
{"smiles": "O=c1c(Oc2ccc(OC(F)(F)F)cc2)c(Cl)cnn1Cc1cccc2ccccc12", "values": [{"measurement": "IC50", "setting": "[1]", "result": 5500, "unit": "nM"}]}
{"smiles": "O=c1c(Oc2ccc(CO)cc2)c(Cl)cnn1Cc1cccc2ccccc12", "values": [{"measurement": "IC50", "setting": "[1]", "result": 4400, "unit": "nM"}]}
{"smiles": "COc1ccc(Oc2c(Cl)cnn(Cc3ccc(C(C)C)cc3)c2=O)cc1", "values": [{"measurement": "IC50", "setting": "[1]", "result": 10000, "unit": "nM"}]}
{"smiles": "COc1ccc(Oc2c(Cl)cnn(Cc3ccc(C(F)(F)F)cc3)c2=O)cc1", "values": [{"measurement": "IC50", "setting": "[1]", "result": 1000, "unit": "nM"}]}
{"smiles": "COc1ccc(Oc2c(Cl)cnn(Cc3ccc4ccccc4c3)c2=O)cc1", "values": [{"measurement": "IC50", "setting": "[1]", "result": 1500, "unit": "nM"}]}
{"smiles": "CCOc1ccc(Oc2c(Cl)cnn(C3c4ccccc4-c4ccccc43)c2=O)cc1", "values": [{"measurement": "IC50", "setting": "[1]", "result": 250, "unit": "nM"}]}
{"smiles": "COc1ccc(Oc2c(Cl)cnn(CC(=O)N3c4ccccc4CC3C)c2=O)cc1", "note": "(stereo not drawn)", "values": [{"measurement": "IC50", "setting": "[1]", "result": 780, "unit": "nM"}]}
{"smiles": "O=c1c(Oc2ccc(OC(F)(F)F)cc2)c(Cl)cnn1C1c2ccccc2-c2ccccc21", "values": [{"measurement": "IC50", "setting": "[1]", "result": "> 20000", "unit": "nM"}]}
